Measured values taken from patent EP4603105A1, “PHARMACEUTICAL COMPOSITION CONTAINING CYCLIC COMPOUND HAVING SELECTIVE KRAS INHIBITORY EFFECT AGAINST HRAS AND NRAS” (CHUGAI SEIYAKU KABUSHIKI KAISHA, priority 2022, dated 2024).
*1 amine or outer side, *2 acyl side, *3 side chain or, on linkers, in order; H or OH if unused. Where a SMILES comes first, the peptide text is derived from it. Bridges are numbered along the chain shown (N, C = ends). [ ]: non-standard residue; d: D form. The star is where a group is joined. hPhe(3-Cl-4-CF3) = N[C@@H](CCc1ccc(C(F)(F)F)c(Cl)c1)C(=O)O; X24 = CC(C)CN([C@@H](Cc1ccc(C(F)(F)F)cc1)C(=O)[*:2])[*:1]; NPrPhe(4-CF3) = CCCN[C@@H](Cc1ccc(C(F)(F)F)cc1)C(=O)O; NMeGly(cPent) = CN[C@H](C(=O)O)C1CCCC1; Pro(4,4-Me2) = CC1(C)CN[C@H](C(=O)O)C1; NEtLeu = CCN[C@@H](CC(C)C)C(=O)O; NMeD = CN[C@@H](CC(=O)O)C(=O)O; NMeL = CN[C@@H](CC(C)C)C(=O)O; Morpholide = C1CN(*)CCO1; NMeA = CN[C@@H](C)C(=O)O; Ac5c = NC1(C(=O)O)CCCC1; Aze = O=C(O)[C@@H]1CCN1; Sar = CNCC(=O)O

How the values were obtained:
[1] = biological target: HRAS wild-type protein (Homo sapiens, UniProt P01112); experiment: Binding to HRAS by surface plasmon resonance (SPR), KD and KD ratio to KRAS
HRAS wild-type protein, sequence (P01112 whole entry): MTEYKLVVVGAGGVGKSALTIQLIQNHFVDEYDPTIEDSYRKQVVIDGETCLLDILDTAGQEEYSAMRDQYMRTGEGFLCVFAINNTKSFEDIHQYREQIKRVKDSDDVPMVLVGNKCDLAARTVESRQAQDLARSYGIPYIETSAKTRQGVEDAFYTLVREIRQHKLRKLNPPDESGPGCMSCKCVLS
How it was run: (§1)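 SPR, 30°C: Avi-biotin RAS·GDP captured via Biotin CAPture (~100–300 RU); running buffer HBS pH 7.4, 1 mM DTT, 10 mM MgCl2, 0.01% Tween 20, 10 µM GDP, 4% DMSO. Single-cycle kinetics, 100 µL/min, 75 s injections; 1:1 model → KD.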

[2] = test system: human lung cancer strain NCI-H441; format: cell-based
How it was run: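 Proliferation was scored by […] measured after the reagent was added to cultures kept at 37°C in 5% carbon dioxide.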

[3] = biological target: GDP-bound NRAS wild-type protein (Homo sapiens, UniProt P01111); experiment: Binding to NRAS by surface plasmon resonance (SPR), KD and KD ratio to KRAS
GDP-bound NRAS wild-type protein, sequence (P01111 whole entry): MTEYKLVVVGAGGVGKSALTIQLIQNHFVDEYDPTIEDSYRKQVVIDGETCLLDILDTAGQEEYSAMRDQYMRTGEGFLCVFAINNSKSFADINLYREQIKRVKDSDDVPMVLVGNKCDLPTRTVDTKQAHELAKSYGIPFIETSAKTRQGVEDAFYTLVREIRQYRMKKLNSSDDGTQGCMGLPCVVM
How it was run: as §1

[4] = ratio of the KD value with respect to HRAS wild-type protein to the KD value with respect to KRAS
[5] = ratio of the KD value with respect to GDP-bound NRAS wild-type protein to the KD value with respect to KRAS
[6] = ratio of KD for HRAS wild-type protein to KD for KRAS
[7] = ratio of KD for GDP-bound NRAS wild-type protein to KD for KRAS

Row | Structure (SMILES) | HRAS /KRAS [1, 4] | IC50 [2] | NRAS /KRAS [3, 5] | HRAS /KRAS [1, 6] | NRAS /KRAS [3, 7]
1 | CC[C@H](C)[C@@H]1NC(=O)[C@H](CC(C)C)N(C)C(=O)C[C@@H](C(=O)N2CCOCC2)N(C)C(=O)[C@H](C2CCCC2)N(C)C(=O)C2(CCCC2)NC(=O)[C@@H]2CCCN2C(=O)[C@H](CCc2ccc(C(F)(F)F)c(Cl)c2)NC(=O)CN(C)C(=O)[C@H](Cc2ccc(OC(F)(F)F)cc2)N2C/C=C\CC[C@@H](C2=O)N(C)C(=O)CN(C)C1=O [PP0610] | B (a compound having 3 or more and less than 10 is denoted as B) | 689 nM | B (a compound having 3 or more and less than 10 is denoted as B) | – | –
2 | CCCN1C(=O)[C@@H]2CCN2C(=O)[C@H](C)N(C)C(=O)[C@H]([C@@H](C)CC)NC(=O)[C@H](CC(C)C)N(CC)C(=O)C[C@@H](C(=O)N2CCOCC2)N(C)C(=O)[C@H](C2CCCC2)N(C)C(=O)C2(CCCC2)NC(=O)[C@@H]2CCCN2C(=O)[C@H](CCc2ccc(C(F)(F)F)c(Cl)c2)NC(=O)CN(C)C(=O)[C@@H]1Cc1ccc(C(F)(F)F)cc1 [PP0151] ([NEtLeu]I[NMeA][Aze][NPrPhe(4-CF3)][Sar][hPhe(3-Cl-4-CF3)]P[Ac5c][NMeGly(cPent)][NMeD]-Morpholide; lactam N-11) | – | 5.3 nM | – | C (A compound having a KD ratio of 0.1 or more and less than 3 is denoted as C) | C (A compound having a KD ratio of 0.1 or more and less than 3 is denoted as C)
3 | CCO[C@@H]1C[C@H]2C(=O)NC3(CCC3)C(=O)N(C)[C@@H](C3CCCC3)C(=O)N(C)[C@H](C(=O)N(C)C)CC(=O)N(C)[C@@H](CC)C(=O)N[C@@H]([C@@H](C)CC)C(=O)N3CC[C@H]3C(=O)N(C)[C@H]3CC(C)=C(C)CN(C3=O)[C@@H](Cc3ccc(C(F)(F)F)cc3)C(=O)N(C)CC(=O)N[C@@H](CCc3cc(F)c(C(F)(F)F)c(F)c3)C(=O)N2C1 [PP1049] | – | 359 nM | – | C (A compound having a KD ratio of 0.1 or more and less than 3 is denoted as C) | C (A compound having a KD ratio of 0.1 or more and less than 3 is denoted as C)
4 | CCCN1C(=O)CN(C)C(=O)CNC(=O)[C@H]([C@@H](C)CC)NC(=O)[C@H](CC(C)C)N(C)C(=O)C[C@@H](C(=O)N(C)C)N(C)C(=O)[C@H](C2CCCC2)N(C)C(=O)C2(CCCC2)NC(=O)[C@@H]2CCCN2C(=O)[C@H](CCc2ccc(C(F)(F)F)c(Cl)c2)NC(=O)CN(C)C(=O)[C@@H]1Cc1ccc(C(F)(F)F)cc1 [PP0417] ([NMeL]IG[Sar][NPrPhe(4-CF3)][Sar][hPhe(3-Cl-4-CF3)]P[Ac5c][NMeGly(cPent)][NMeD]-NMe2; lactam N-11) | C (A compound having a KD ratio of 0.1 or more and less than 3 is denoted as C) | 3.9 nM | B (a compound having 3 or more and less than 10 is denoted as B) | – | –
5 | CC[C@H](C)[C@@H]1NC(=O)[C@H](CC(C)C)N(C)C(=O)C[C@@H](C(=O)N2CCOCC2)N(C)C(=O)[C@H](C2CCCC2)N(C)C(=O)C2(CCCC2)NC(=O)[C@@H]2CCCN2C(=O)[C@H](CCc2ccc(C(F)(F)F)c(Cl)c2)NC(=O)CN(C)C(=O)[C@H](Cc2ccc(C(F)(F)F)cc2)N(CC(C)C)C(=O)[C@@H]2CCN2C(=O)[C@H](C)N(C)C1=O [PP0107] ([NMeL]I[NMeA][Aze][X24][Sar][hPhe(3-Cl-4-CF3)]P[Ac5c][NMeGly(cPent)][NMeD]-Morpholide; lactam N-11) | – | 32.2 nM | – | C (A compound having a KD ratio of 0.1 or more and less than 3 is denoted as C) | C (A compound having a KD ratio of 0.1 or more and less than 3 is denoted as C)
6 | CCCN1C(=O)CN(C)C(=O)CN(C)C(=O)[C@H]([C@@H](C)CC)NC(=O)[C@H](CC(C)C)N(C)C(=O)C[C@@H](C(=O)N2CCOCC2)N(C)C(=O)[C@H](C2CCCC2)N(C)C(=O)C2(CCCC2)NC(=O)[C@@H]2CC(C)(C)CN2C(=O)[C@H](CCc2ccc(C(F)(F)F)c(Cl)c2)NC(=O)CN(C)C(=O)[C@@H]1Cc1ccc(C(F)(F)F)cc1 [PP0446] ([NMeL]I[Sar][Sar][NPrPhe(4-CF3)][Sar][hPhe(3-Cl-4-CF3)][Pro(4,4-Me2)][Ac5c][NMeGly(cPent)][NMeD]-Morpholide; lactam N-11) | C (A compound having a KD ratio of 0.1 or more and less than 3 is denoted as C) | 1.6 nM | B (a compound having 3 or more and less than 10 is denoted as B) | – | –
7 | CC[C@H](C)[C@@H]1NC(=O)[C@H](CC(C)C)N(C)C(=O)C[C@@H](C(=O)N2CCOCC2)N(C)C(=O)[C@H](C2CCCC2)N(C)C(=O)C2(CCCC2)NC(=O)[C@@H]2CCCN2C(=O)[C@H](CCc2cc(F)c(C(F)(F)F)c(F)c2)NC(=O)CN(C)C(=O)[C@H](Cc2ccc(C(F)(F)F)cc2)N2CCCC[C@@H](C2=O)N(C)C(=O)CNC1=O [PP0542] | B (a compound having 3 or more and less than 10 is denoted as B) | 3.4 nM | B (a compound having 3 or more and less than 10 is denoted as B) | – | –
